Like-named read-outs stand apart in the source and are kept apart here.
Tests used:
[1] = molecular target: T1, human thyroid receptor alpha ligand-binding domain (LBD) (Homo sapiens, UniProt P10827); assay: TR-FRET thyroid receptor alpha coactivator assay (THR biochemical assay, Assay 1); settings: for EC50: Table 4, THR-alpha, read-out: Activity category Assay 1 (EC50, THR-alpha agonist activity); for Emax / Activity category Assay 1 THRα (Emax): Table 5, THRα; for Emax: read-out: Activity category Assay 1 THRα (Emax)
T1 construct: purchased Invitrogen
Summary of the method: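 GST-tagged human TRβ or TRα LBD, 1 nM final (stated for β), with fluorescein-SRC2-2 coactivator peptide (200 nM) and Tb-anti-GST antibody (2 nM). Agonists serially diluted, 1% DMSO final. 1 h incubation at rt in the dark; TR-FRET read as rise in fluorescein and drop in terbium emission.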

[2] = system: CPT1A gene expression in Huh-7 cells; assay: Huh-7 differential gene expression, CPT1A RT-qPCR (Assay 3); assay type: cell-based; settings: Table 6, Huh-7 cells, CPT1A, 24 hr treatment; for EC50: read-out: Activity category Assay 3 EC50; for Emax: read-out: Activity category Assay 3 Emax
Procedure: Huh-7 Differential Gene Expression (Assay 3)
Fetal bovine serum (FBS) was incubated with washed resin (50 mg resin/mL FBS; resin weight is dry weight of resin prior to washing) for 5 hr at room temperature on a rotor. The FBS was separated from the resin via centrifugation and incubated with new, washed resin for 18 h at room temperature on a rotor.
Cell Culture and Drug Treatment
Huh-7 cells were cultured in DMEM (10-013-CM, Corning) supplemented with 10% FBS and 1% Pen-Strep at 37° C. under 5% C02. When 70-80% confluence was reached, the cells were removed by trypsinization. The medium was aspirated from the cell culture dish, the cell monolayer was washed with 1×PBS, and 0.05% trypsin, 0.53 mM EDTA (25-052-CV, Corning) solution was added to the dish. After 3 min incubation, the cells were detached completely by repeatedly pipetting solution onto the monolayer. Equal volume of DMEM supplemented with 10% rFBS and 1% Pen-Strep (TH-depleted DMEM) was added to the dish to inactivate the trypsin. The cell suspension was centrifuged at 350×g at room temperature for 3 min. The supernatant was aspirated out and the cell pellet was resuspended in TH-depleted DMEM. […] After 24 hr incubation, the media was replaced with treatment media. All compounds were serially diluted in DMSO and final concentrations were reached by dilution in TH-depleted DMEM (0.1% DMSO). The cells were incubated in treatment media for 24 hr. Treatments were performed in biological duplicates.
After 24 hr in treatment media, the cells were lysed directly on the culture plates and cDNA was produced using the TaqMan™ Fast Advanced Cells-to-CT™ Kit (A35374, Invitrogen) and following the manufacturer's protocol. RT-qPCR for CPT1A (Hs00912671_m1) and two housekeeping genes, ACTB (Hs01060665_g1) and TFG (Hs02832013_g1), was performed using TaqMan™ Fast Advanced Master Mix. RT-qPCR reactions were run on the qTOWER^3 84 G (Analytik Jena) in technical duplicates.
ΔRn values were obtained from the qPCRsoft384 1.0 software and CPT1A gene expression was quantified via the 2-ΔΔCt method. Dose-response curves were generated using GraphPad Prism 8 using four parameter logistic equation without top constraint to derive EC50 and Emax.

THR beta = molecular target: T2, THR beta (Homo sapiens, UniProt P10828); assay: HEK293T THR beta/RXR luciferase reporter assay (Assay 2); assay type: cell-based; settings: for Emax: HEK-293T, read-out: Activity category Assay 2 THRβ (Emax); for EC50: THR-beta, HEK293T reporter assay, read-out: Activity category Assay 2 (EC50, THR-beta agonist)
T2 construct: expressed in transfected cells; host or cells: HEK293T (ATCC CRL-3216)
T2 sequence (P10828 1-461): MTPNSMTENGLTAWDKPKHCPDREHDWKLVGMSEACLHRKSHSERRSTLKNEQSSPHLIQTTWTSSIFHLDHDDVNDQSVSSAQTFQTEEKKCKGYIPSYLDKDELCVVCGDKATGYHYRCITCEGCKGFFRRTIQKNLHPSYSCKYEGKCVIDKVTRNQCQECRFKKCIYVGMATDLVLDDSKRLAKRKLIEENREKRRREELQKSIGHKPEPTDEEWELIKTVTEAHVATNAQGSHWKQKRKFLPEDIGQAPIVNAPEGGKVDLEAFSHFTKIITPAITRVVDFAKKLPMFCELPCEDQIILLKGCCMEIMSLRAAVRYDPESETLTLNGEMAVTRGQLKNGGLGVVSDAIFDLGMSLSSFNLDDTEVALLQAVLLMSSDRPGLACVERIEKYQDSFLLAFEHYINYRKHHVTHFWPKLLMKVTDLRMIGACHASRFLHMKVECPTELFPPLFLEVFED
T2 sequence (P19793 1-462 partner): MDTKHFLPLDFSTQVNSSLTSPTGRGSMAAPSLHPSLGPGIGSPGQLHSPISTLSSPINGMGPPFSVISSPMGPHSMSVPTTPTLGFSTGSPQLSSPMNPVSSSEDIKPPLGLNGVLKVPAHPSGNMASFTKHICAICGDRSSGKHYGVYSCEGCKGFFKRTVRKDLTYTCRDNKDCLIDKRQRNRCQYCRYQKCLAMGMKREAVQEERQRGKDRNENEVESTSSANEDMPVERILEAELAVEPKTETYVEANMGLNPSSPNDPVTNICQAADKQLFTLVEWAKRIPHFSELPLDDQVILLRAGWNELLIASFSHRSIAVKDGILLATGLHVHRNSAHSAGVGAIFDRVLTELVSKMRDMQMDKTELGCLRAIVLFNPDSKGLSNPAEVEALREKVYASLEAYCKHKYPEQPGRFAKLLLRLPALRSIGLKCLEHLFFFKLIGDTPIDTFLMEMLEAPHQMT
Summary of the method: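 HEK293T cells transiently transfected with TRE-luciferase reporter, RXR, and THR alpha or THR beta plasmid; ten five-fold compound dilutions from DMSO added for 18-24 h. One-Glo luminescence read; percent agonism normalized between negative and positive controls.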

T1 sequence (P10827 163-410 isoform P10827-2 limits assumed, other chains not shown): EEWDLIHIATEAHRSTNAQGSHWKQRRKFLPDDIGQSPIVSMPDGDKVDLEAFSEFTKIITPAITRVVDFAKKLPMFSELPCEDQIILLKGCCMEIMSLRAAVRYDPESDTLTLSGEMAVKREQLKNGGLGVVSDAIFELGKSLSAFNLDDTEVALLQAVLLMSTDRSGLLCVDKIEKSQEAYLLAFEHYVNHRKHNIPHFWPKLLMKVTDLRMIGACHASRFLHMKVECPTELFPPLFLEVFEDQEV

| Compound | EC50 [1] [nM] | Emax [1] [%] | EC50 ([2]; Homo sapiens, Huh-7, 24 h) [nM] | Emax (THR beta; Table 5, Assay 2, THRβ) [%] | EC50 (THR beta) [nM] | Activity category Assay 1 THRα (Emax) [1] | EC50 [2] [nM] | Activity category Assay 2 THRβ (Emax) (THR beta; Table 5, Assay 2, THRβ) | Emax ([2]; Homo sapiens, Huh-7, 24 h) [%] | Activity category Assay 3 Emax [2] |
| --- | --- | --- | --- | --- | --- | --- | --- | --- | --- | --- |
| CC1(C)CC(c2cc(Oc3c(Cl)cc(-n4nc(N)c(=O)[nH]c4=O)cc3Cl)n[nH]c2=O)C1 [Compound 89, 6-Amino-2-(3,5-dichloro-4-((5-(3,3-dimethylcyclobutyl)-6-oxo-1,6-dihydropyridazin-3-yl)oxy)phenyl)-1,2,4-triazine-3,5(2H,4H)-dione] | 250 to 1000 | < 50 | 100 to 1000 | 50 to 75 |  |  |  |  | > 75 |  |
| C[C@H]1C[C@H](c2cc(Oc3c(Cl)cc(-n4nc(N)c(=O)[nH]c4=O)cc3Cl)n[nH]c2=O)C1 (single isomer, unassigned) [Compound 86-A, 6-Amino-2-(3,5-dichloro-4-((5-((1r,3r)-3-methylcyclobutyl)-6-oxo-1,6-dihydropyridazin-3-yl)oxy)phenyl)-1,2,4-triazine-3,5(2H,4H)-dione] | 250 to 1000 | < 50 | < 100 | > 75 | 50 to 250 |  |  |  | 50 to 75 |  |
| CC(C)c1n[nH]c2nnc(Oc3c(Cl)cc(-n4nc(C#N)c(=O)[nH]c4=O)cc3Cl)cc12 [Compound 75A, 2-(3,5-Dichloro-4-((3-isopropyl-1H-pyrazolo[3,4-c]pyridazin-5-yl)oxy)phenyl)-3,5-dioxo-2,3,4,5-tetrahydro-1,2,4-triazine-6-carbonitrile] | 50 to 250 | < 50 | > 100 | 50 to 75 |  |  |  |  | > 75 |  |
| CC(c1ccccc1)c1cc(Oc2c(Cl)cc(-n3nc(N)c(=O)[nH]c3=O)cc2Cl)n[nH]c1=O (single isomer, unassigned) [Compound 164, 6-Amino-2-(3,5-dichloro-4-((6-oxo-5-(1-phenylethyl)-1,6-dihydropyridazin-3-yl)oxy)phenyl)-1,2,4-triazine-3,5(2H,4H)-dione] | 50 to 250 |  | < 100 | > 75 |  | C (Emax<50%) |  |  | 50 to 75 |  |
| Nc1nn(-c2cc(Cl)c(Oc3n[nH]c(=O)cc3-c3ccc4c(c3)CCCC4)c(Cl)c2)c(=O)[nH]c1=O [Compound 72-A, 6-amino-2-(3,5-dichloro-4-[[6-oxo-4-(5,6,7,8-tetrahydronaphthalen-2-yl)-1H-pyridazin-3-yl]oxy]phenyl)-4H-1,2,4-triazine-3,5-dione] | 50 to 250 | < 50 | 100 to 1000 | 50 to 75 | 50 to 250 |  |  |  | > 75 |  |
| Nc1nn(-c2cc(Cl)c(Oc3cc(-c4ccc5c(c4)CCCO5)c(=O)[nH]n3)c(Cl)c2)c(=O)[nH]c1=O [Compound 114] | > 25000 | < 50 | 100 to 1000 | < 50 | 250 to 1000 |  |  |  | 50 to 75 |  |
| CCC(C)c1cc(Oc2c(Cl)cc(-n3nc(N)c(=O)[nH]c3=O)cc2Cl)n[nH]c1=O (stereo not drawn) [Compound 39-A] | 250 to 1000 |  |  |  | 50 to 250 | B (Emax≥50%, and <75%) | < 100 | A (Emax≥75%) |  | B (Emax≥50%, and <75%) |
| Nc1nn(-c2cc(Cl)c(Oc3cc(C4CC5(CC5)C4)c(=O)[nH]n3)c(Cl)c2)c(=O)[nH]c1=O [Compound 93] | 250 to 1000 | < 50 | < 100 | 50 to 75 | 250 to 1000 |  |  |  | 50 to 75 |  |
| Cc1cc(-n2nc(C#N)c(=O)[nH]c2=O)cc(C)c1Cc1ccc2[nH]cc(C(C)C)c2n1 [Compound 31, 2-[4-[(3-isopropyl-1H-pyrrolo[3,2-b]pyridin-5-yl)methyl]-3,5-dimethyl-phenyl]-3,5-dioxo-1,2,4-triazine-6-carbonitrile] | < 50 | < 50 | 100 to 1000 | > 75 | 250 to 1000 |  |  |  | > 75 |  |

Further lines, with some results ahead:

| EC50 [1] [nM] | Emax [1] [%] | EC50 ([2]; Homo sapiens, Huh-7, 24 h) [nM] | Emax (THR beta; Table 5, Assay 2, THRβ) [%] | EC50 (THR beta) [nM] | Activity category Assay 1 THRα (Emax) [1] | EC50 [2] [nM] | Activity category Assay 2 THRβ (Emax) (THR beta; Table 5, Assay 2, THRβ) | Compound | Emax ([2]; Homo sapiens, Huh-7, 24 h) [%] | Activity category Assay 3 Emax [2] |
| --- | --- | --- | --- | --- | --- | --- | --- | --- | --- | --- |
| < 50 | 50 to 75 | 100 to 1000 | 50 to 75 | 1000 to 10000 |  |  |  | CC(C)Nc1n[nH]c2ccc(Oc3c(Cl)cc(-n4nc(C#N)c(=O)[nH]c4=O)cc3Cl)cc12 [Compound 145, 2-(3,5-dichloro-4-((3-(isopropylamino)-1H-indazol-5-yl)oxy)phenyl)-3,5-dioxo-2,3,4,5-tetrahydro-1,2,4-triazine-6-carbonitrile] | > 75 |  |
| 250 to 1000 | < 50 | 100 to 1000 | 50 to 75 | 50 to 250 |  |  |  | Nc1nn(-c2cc(Cl)c(Oc3cc(C4CC5(CCC5)C4)c(=O)[nH]n3)c(Cl)c2)c(=O)[nH]c1=O [Compound 94] | 50 to 75 |  |
| 1000 to 25000 | < 50 | > 100 | 50 to 75 | 50 to 250 |  |  |  | Nc1nn(-c2cc(Cl)c(Oc3cc(-c4ccc5ccccc5c4)c(=O)[nH]n3)c(Cl)c2)c(=O)[nH]c1=O [Compound 67, 6-amino-2-(3,5-dichloro-4-[[5-(naphthalen-2-yl)-6-oxo-1H-pyridazin-3-yl]oxy]phenyl)-4H-1,2,4-triazine-3,5-dione] | > 75 |  |
| 50 to 250 | < 50 | 100 to 1000 | 50 to 75 | < 50 |  |  |  | CC(C)c1cc(=O)[nH]c2ccc(Oc3c(Cl)cc(-n4nc(N)c(=O)[nH]c4=O)cc3Cl)cc12 [Compound 146, 6-amino-2-[3,5-dichloro-4-[(4-isopropyl-2-oxo-1H-quinolin-6-yl)oxy]phenyl]-1,2,4-triazine-3,5-dione] | > 75 |  |
| > 25000 | < 50 | > 100 | > 75 | 1000 to 10000 |  |  |  | CC(C)c1c[nH]c2ccc(Oc3c(Cl)cc(-n4nc(C#N)c(=O)[nH]c4=O)cc3Cl)nc12 [Compound 18] | > 75 |  |
| 1000 to 25000 | < 50 | > 100 | > 75 | > 10000 |  |  |  | CC(C)c1c[nH]c2nnc(Oc3c(Cl)cc(-n4nc(C#N)c(=O)[nH]c4=O)cc3Cl)cc12 [Compound 52, 2-[3,5-dichloro-4-([5-isopropyl-7H-pyrrolo[2,3-c]pyridazin-3-yl]oxy)phenyl]-3,5-dioxo-4H-1,2,4-triazine-6-carbonitrile] | > 75 |  |

Reference: patent US12180192B2, “Modulators of THR-β and methods of use thereof” (ALIGOS THERAPEUTICS, INC., priority 2019, dated 2024)
